Each molecule was assayed against human PDE4B1 (Homo sapiens (Human), UniProt Q07343) (assay: cAMP HTRF assay to determine the activity of hPDE4B1). Conditions: IC50 inhibition of PDE4B; human recombinant PDE4B1, cAMP HTRF assay.
Assay type: biochemical
Method: Biological Testing cAMP HTRF® Assay to Determine the Activity of hPDE4B1
The inhibiting effect of the compounds on the enzyme activity of human PDE4B1 was measured by the quantification of 5′-adenosine monophosphate (5′-AMP), which is formed from 3′,5′-cyclic adenosine monophosphate (cAMP). Human recombinant enzyme, expressed in Sf9 cells, and the HTRF (homogeneous time-resolved fluorescence) detection method were used in the assay.
The test compound or water (control) was mixed with the human recombinant PDE4B1 enzyme (4.8 U) in a buffer consisting of 44.4 mM tris-HCl, 5.28 mM MgCl2, 2.64 mM DTT and 0.044% Tween 20 (pH 7.8). After adding the cAMP enzyme substrate (final concentration 40 nM), the mixture was incubated for 30 minutes at room temperature. Then a fluorescence acceptor (Dye2 marked with cAMP), a fluorescence donor (anti-cAMP antibody marked with a europium cryptate) and the non-specific phosphodiesterase inhibitor IBMX (3-isobutyl-1-methylxanthine; final concentration 1 mM) were added. After 60 min the fluorescence transfer, which correlates with the amount of remaining cAMP, was measured with a microplate reader (Rubystar, BMG) at λex=337 nm, λem=620 nm and λem=665 nm. The enzyme activity was calculated from the quotient formed from the measured signal at 665 nm and that at 620 nm. The result was expressed as the percentage inhibition of enzyme activity of the control (without PDE4 inhibitor). The enzyme was omitted for measurement of the basal control.
[N. Saldou et al., Comparison of recombinant human PDE4 isoforms: interaction with substrate and inhibitors, Cell. Signal. Vol. 10, No. 6, 427-440, 1998]. Several compounds according to the invention are tested in the above-described assay.

Chain of human PDE4B1 (Q07343 whole entry): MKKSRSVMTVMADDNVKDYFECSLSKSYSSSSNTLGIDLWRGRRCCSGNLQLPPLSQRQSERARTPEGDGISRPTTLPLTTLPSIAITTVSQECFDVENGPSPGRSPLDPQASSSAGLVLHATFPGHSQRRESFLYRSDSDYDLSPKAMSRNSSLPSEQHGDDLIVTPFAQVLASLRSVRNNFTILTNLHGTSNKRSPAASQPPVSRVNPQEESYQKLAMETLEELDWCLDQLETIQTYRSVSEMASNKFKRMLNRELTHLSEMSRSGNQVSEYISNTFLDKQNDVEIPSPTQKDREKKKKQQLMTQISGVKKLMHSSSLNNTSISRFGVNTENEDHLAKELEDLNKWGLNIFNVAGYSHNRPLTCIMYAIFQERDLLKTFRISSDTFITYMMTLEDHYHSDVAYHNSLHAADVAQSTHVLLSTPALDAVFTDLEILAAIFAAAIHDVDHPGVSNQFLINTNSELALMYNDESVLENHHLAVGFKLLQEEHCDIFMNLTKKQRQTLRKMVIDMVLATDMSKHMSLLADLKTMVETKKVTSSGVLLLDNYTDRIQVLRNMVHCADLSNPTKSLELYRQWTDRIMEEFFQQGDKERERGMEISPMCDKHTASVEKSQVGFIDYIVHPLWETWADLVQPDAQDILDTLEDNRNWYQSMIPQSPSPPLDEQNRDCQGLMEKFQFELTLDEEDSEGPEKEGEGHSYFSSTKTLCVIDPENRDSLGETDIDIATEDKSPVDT

Molecule	IC50 [µM]
O=C(c1ccc2c(c1)N(c1ncc(-c3ccccc3F)cn1)CC21CC1)N1CCC2(CNC2)C1 [Compound 74, (2,6-Diazaspiro[3.4]octan-6-yl)-[1-[5-(2-fluorophenyl)-pyrimidin-2-yl]-spiro[1,2-dihydro-indole-3,1′-cyclopropane]-6-yl]-methanone]	1 to 10
Cn1nc(C(F)(F)F)cc1-c1cnc(N2CC3(CC3)c3ccc(C(=O)N4CCOCC4)cc32)nc1 [Compound 134, [1-[5-[2-Methyl-5-(trifluoromethyl)-2H-pyrazol-3-yl]-pyrimidin-2-yl]-spiro[1,2-dihydro-indole-3,1′-cyclopropane]-6-yl]-morpholin-4-yl-methanone]	0.1 to 1
COc1cccc(-c2cnc(N3CC4(CC4)c4ccc(C(=O)N5CC6CC5CN6)cc43)nc2)c1 (stereo not shown) [Compound 212, (2,5-Diazabicyclo[2.2.1]heptan-2-yl)-[1-[5-(3-methoxyphenyl)-pyrimidin-2-yl]-spiro[1,2-dihydro-indole-3,1′-cyclopropane]-6-yl]-methanone; 2,2,2-trifluoro-acetic acid]	< 0.1
[1-[5-(6-Methoxy-pyridazin-3-yl)-pyrimidin-2-yl]-spiro[1,2-dihydro-indole-3,1′-cyclopropane]-6-yl]-morpholin-4-yl-methanone [Compound 201]	< 0.1
N#Cc1ccc(F)c(-c2cnc(N3CC4(CC4)c4ccc(C(=O)N5CCNCC5)cc43)nc2)c1 [Compound 109, 4-Fluoro-3-[2-[6-(piperazine-1-carbonyl)-spiro[1,2-dihydro-indole-3,1′-cyclopropane]-1-yl]-pyrimidin-5-yl]-benzonitrile]	< 0.1
Cc1cc(-c2cnc(N3CC4(CC4)c4ccc(C(=O)N5CCOCC5)cc43)nc2)sn1 [Compound 155, [1-[5-(3-Methyl-isothiazol-5-yl)-pyrimidin-2-yl]-spiro[1,2-dihydro-indole-3,1′-cyclopropane]-6-yl]-morpholin-4-yl-methanone]	< 0.1
COCC1CCN(C(=O)c2ccc3c(c2)N(c2ncc(-c4ccccc4F)cn2)CC32CC2)CC1 [Compound 217, [1-[5-(2-Fluorophenyl)-pyrimidin-2-yl]-spiro[1,2-dihydro-indole-3,1′-cyclopropane]-6-yl]-[4-(methoxymethyl)-piperidin-1-yl]-methanone]	1 to 10
COC[C@@H]1CCCN1C(=O)c1ccc2c(c1)N(c1ncc(-c3ccccc3F)cn1)CC21CC1 [Compound 92, [1-[5-(2-Fluorophenyl)-pyrimidin-2-yl]-spiro[1,2-dihydro-indole-3,1′-cyclopropane]-6-yl]-[(2S)-2-(methoxymethyl)-pyrrolidin-1-yl]-methanone]	0.1 to 1
N[C@@H]1CCN(C(=O)c2ccc3c(c2)N(c2ncc(-c4cccc(F)c4F)cn2)CC32CC2)C1 [Compound 114, [(3R)-3-Amino-pyrrolidin-1-yl]-[1-[5-(2,3-difluoro-phenyl)-pyrimidin-2-yl]-spiro[1,2-dihydro-indole-3,1′-cyclopropane]-6-yl]-methanone]	< 0.1
O=C(c1ccc2c(c1)N(c1ncc(-c3ccccc3F)cn1)CC21CC1)N1CCSCC1 [Compound 93, [1-[5-(2-Fluorophenyl)-pyrimidin-2-yl]-spiro[1,2-dihydro-indole-3,1′-cyclopropane]-6-yl]thiomorpholin-4-yl-methanone]	< 0.1
O=C(c1ccc2c(c1)N(c1ncc(-c3ccc(CO)o3)cn1)CC21CC1)N1CCOCC1 [Compound 142, [1-[5-[5-(Hydroxymethyl)-furan-2-yl]-pyrimidin-2-yl]-spiro[1,2-di-hydro-indole-3,1′-cyclopropane]-6-yl]-morpholin-4-yl-methanone]	< 0.1
CN[C@@H]1CCN(C(=O)c2ccc3c(c2)N(c2ncc(-c4ccccc4F)cn2)CC32CC2)C1 [Compound 121, [1-[5-(2-Fluorophenyl)-pyrimidin-2-yl]-spiro[1,2-dihydro-indole-3,1′-cyclopropane]-6-yl]-[(3R)-3-methylamino-pyrrolidin-1-yl]-methanone]	< 0.1
Cc1n[nH]c(C)c1-c1cnc(N2CC3(CC3)c3ccc(C(=O)N4CCOCC4)cc32)nc1 [Compound 144, [1-[5-(3,5-Dimethyl-1H-pyraozl-4-yl)-pyrimidin-2-yl]-spiro[1,2-di-hydro-indole-3,1′-cyclopropane]-6-yl]-morpholin-4-yl-methanone]	< 0.1
Cc1ncccc1-c1cnc(N2CC3(CC3)c3ccc(C(=O)N4CCOCC4)cc32)nc1 [Compound 167, [1-[5-(2-Methyl-pyridin-3-yl)-pyrimidin-2-yl]-spiro[1,2-dihydro-indole-3,1′-cyclopropane]-6-yl]-morpholin-4-yl-methanone]	< 0.1
CN(C)C(=O)c1ccc(-c2cnc(N3CC4(CC4)c4ccc(C(=O)N5CCOCC5)cc43)nc2)c(F)c1 [Compound 65, 3-Fluoro-N,N-dimethyl-4-[2-[6-(morpholine-4-carbonyl)-spiro[1,2-dihydro-indole-3,1′-cyclopropane]-1-yl]-pyrimidin-5-yl]-benzamide]	< 0.1
Cc1ccnc(-c2cnc(N3CC4(CC4)c4ccc(C(=O)N5CCOCC5)cc43)nc2)c1 [Compound 192, [1-[5-(4-Methyl-pyridin-2-yl)-pyrimidin-2-yl]-spiro[1,2-dihydro-indole-3,1′-cyclopropane]-6-yl]-morpholin-4-yl-methanone]	< 0.1
1-[5-(3-Carbamoyl-phenyl)-pyrimidin-2-yl]-N-(2-hydroxy-ethyl)-N-methyl-spiro[1,2-dihydro-indole-3,1′-cyclopropane]-6-carboxylic acid amide [Compound 198]	< 0.1

More lines, now with the values ahead:

IC50 [µM]	Molecule
< 0.1	Cc1nc(C)c(-c2cnc(N3CC4(CC4)c4ccc(C(=O)N5CCOCC5)cc43)nc2)s1 [Compound 154, [1-[5-(2,4-Dimethyl-thiazol-5-yl)-pyrimidin-2-yl]-spiro[1,2-dihydro-indole-3,1′-cyclopropane]-6-yl]-morpholin-4-yl-methanone]
1 to 10	O=C(c1ccc2c(c1)N(c1ncc(-c3ccccc3F)cn1)CC21CC1)N1CCCC2(COC2)C1 [Compound 79, [1-[5-(2-Fluorophenyl)-pyrimidin-2-yl]-spiro[1,2-dihydro-indole-3,1′-cyclopropane]-6-yl]-(2-oxa-8-azaspiro[3.5]nonan-8-yl)-methanone]
< 0.1	CN1CCN(C(=O)c2ccc3c(c2)N(c2ncc(-c4ccccc4F)cn2)CC32CC2)CC1=O [Compound 38, 4-[1-[5-(2-Fluorophenyl)-pyrimidin-2-yl]spiro[1,2-dihydro-indole-3,1′-cyclopropane]-6-carbonyl]-1-methyl-piperazin-2-one]
< 0.1	COc1ccsc1-c1cnc(N2CC3(CC3)c3ccc(C(=O)N4CCNC(=O)C4)cc32)nc1 [Compound 177, 4-[1-[5-(3-Methoxy-thiophen-2-yl)-pyrimidin-2-yl]-spiro[1,2-dihydro-indole-3,1′-cyclopropane]-6-carbonyl]-piperazin-2-one]
< 0.1	O=C(c1ccc2c(n1)N(c1ncc(-c3ccccc3F)cn1)CC21CC1)N1CCOCC1 [Compound 170, [1-[5-(2-Fluorophenyl)-pyrimidin-2-yl]-spiro[1,2-dihydro-pyrrolo[2,3-b]pyridine-3,1′-cyclopropane]-6-yl]-morpholin-4-yl-methanone]
< 0.1	CN(C)CCN(C)C(=O)c1ccc2c(c1)N(c1ncc(-c3ccccc3F)cn1)CC21CC1 [Compound 99, N-[2-(Dimethylamino)ethyl]-1-[5-(2-fluorophenyl)-pyrimidin-2-yl]-N-methyl-spiro[1,2-dihydro-indole-3,1′-cyclopropane]-6-carboxylic acid amide]
< 0.1	O=C(c1ccc2c(c1)N(c1ncc(-c3cccnc3F)cn1)CC21CC1)N1CCOCC1 [Compound 145, [1-[5-(2-Fluoro-pyridin-3-yl)-pyrimidin-2-yl]-spiro[1,2-dihydro-indole-3,1′-cyclopropane]-6-yl]-morpholin-4-yl-methanone]
< 0.1	N[C@@H]1CCN(C(=O)c2ccc3c(c2)N(c2ncc(-c4ccccc4)cn2)CC32CC2)C1 [Compound 108, [(3R)-3-Amino-pyrrolidin-1-yl]-[1-(5-phenyl-pyrimidin-2-yl)-spiro[1,2-dihydro-indole-3,1′-cyclopropane]-6-yl]methanone]
< 0.1	[1-[5-(2-Methyl-pyrimidin-4-yl)-pyrimidin-2-yl]-spiro[1,2-dihydro-indole-3,1′-cyclopropane]-6-yl]-morpholin-4-yl-methanone [Compound 185]
0.1 to 1	CN(C(=O)c1ccc2c(c1)N(c1ncc(-c3ccccc3F)cn1)CC21CC1)C1CC1 [Compound 46, N-Cyclopropyl-1-[5-(2-fluorophenyl)-pyrimidin-2-yl]-N-methyl-spiro[1,2-dihydro-indole-3,1′-cyclopropane]-6-carboxylic acid amide]
< 0.1	Morpholin-4-yl-[1-[5-[4-(trifluoromethyl)-pyridin-2-yl]-pyrimidin-2-yl]-spiro[1,2-dihydro-indole-3,1′-cyclopropane]-6-yl]-methanone [Compound 195]

— patent US10189854B2, “Substituted pyrimidine compounds” (Grünenthal GmbH, priority 2014, dated 2019)
